# Source: patent publication US12240854B2, “TRAF 6 inhibitors” (Helmholtz Zentrum München - Deutsches Forschungszentrum für …, priority 2018, dated 2025)
# “Also recorded” adds a separate entry of the source.
# Experiments:
# [1] = ADME: plasma stability; assay type: in vitro ADME
# Experimental: (§1) All ADME (plasma stability, plasma protein binding, microsomal stability, Log D, Caco-2 assay, CYP450 inhibition and hERG predictor assay) as well as pharmacokinetic studies (Tmax, Cmax, AUC0-240min, Mean Residence Time, Elimination half life, Elimination rate constant, Volume of Distribution and Clearance) of C25-140 (compound 3) were conducted by Bienta Enamine Biology Services of Bienta/Enamine Ltd.
# [2] = target: T1, MURF/TRIM63 (Homo sapiens, UniProt Q969Q1); assay: In vitro ubiquitination assay, TRIM63 ubiquitin ligase kit; assay type: biochemical; settings: K48 chain formation
# T1 construct: purchased Boston Biochem
# Experimental: For analysis of cIAP1, MDM2, TRIM63, RNF4, ITCH and E6AP mediated poly-ubiquitination, the respective ubiquitin ligase kit from Boston Biochem (K-102, K-260, K-200B, K-220, K-240 and K-270) was used. Here, reaction buffer, E1, E2 and E3 enzyme (and p53 substrate in case of MDM2) were mixed and pre-incubated with compound or DMSO for 5 minutes at room temperature before adding Mg^2+-ATP and mono-ubiquitin for reaction start. Ubiquitination was visualized by Western Blot analyses.
# [3] = test system: CYP450; assay: ADME: CYP450 inhibition; assay type: in vitro ADME
# Experimental: as §1
# [4] = test system: U2OS cells; assay: Cell cycle assessment (propidium iodide), U2OS cells; assay type: cell-based; settings: 24 hours and 72 hours
# Experimental: For cell cycle staining, cells were seeded at 2×10^5 cells per sample and treated with compound or DMSO. After the indicated incubation time (24 or 72 hours), cells were fixed in 100% Ethanol and subsequently stained with the Propidium Iodide staining solution (0.1% Triton X-100; 20 μg/ml Propidium Iodide; 200 μg/ml RNAse A in PBS) for 40 min in the dark. The Propidium Iodide fluorescence was collected using the Attune Flow Cytometer (Thermo Fisher Scientific). Analysis was performed using the Single Cell analysis software FlowJo.
# [5] = target: T2, hERG (Homo sapiens, UniProt Q12809); assay: ADME: hERG predictor assay; assay type: in vitro ADME
# T2 construct: Bienta Enamine Biology Services
# Experimental: as §1
# [6] = test system: NF-κB activation in Jurkat T-cells; assay: EMSA for NF-κB activation in Jurkat T-cells; assay type: cell-based, human; settings: PMA/Ionomycin
# Experimental: For compound treatment, MEF cells were seeded in 6 well plates at 1.2×10^5 cells/well the day before treatment. Jurkat T-cells were seeded directly before treatment at 2×10^5 cells/sample. Six hours after compound or DMSO treatment cells were stimulated as indicated. Thereby, MEF cells were left untreated or stimulated with recombinant mouse IL-1β (1 ng/mL) or TNFα (10 ng/mL) for 20 minutes. Jurkat T-cells were stimulated with Phorbol-12-myristat-13-acetet (PMA) (400 ng/mL) and lonomycin (600 ng/mL) for 30 minutes. Eventually, cells were lysed in high-salt lysis buffer (20 mM HEPES pH 7.9; 350 mM NaCl; 1 mM MgCl2; 0.5 mM EDTA; 0.1 mM EGTA; 20% Glycerol; 1% NP-40; 10 mM NaF; 8 mM β-Glycerophosphate; 1 mM DTT; 300 μM Sodium-vanadate; complete protease inhibitor) and analyzed in EMSA assays using H2K (NF-κB) or Oct-1 (loading control) probes.
# [7] = test system: Jurkat T-cells; assay: CellTiter-Glo viability assay, Jurkat T-cells; assay type: cell-based, human; settings: 6 or 24 hours incubation
# Experimental: For cell viability experiments using the CellTiter-Glo® 2.0 system (Promega), MEF cells (1.2×10^3 cells/well), HepG2 cells (4×10^3 cells/well) and Jurkat T-cells (5×10^3 cells/well) were seeded in 384 well plates. After 18 hours, cells were treated with compounds using the Sciclone G3 automation system. After 6 or 24 hours incubation, the luciferase measurement was performed according to the manufacturer's manual.
# [8] = test system: NF-κB target genes ICAM-1 and A20 in MEF cells; assay: mRNA expression (qRT-PCR) in MEF cells; assay type: cell-based, mouse
# Experimental: For MEF cells, 1.2×10^5 cells per sample were seeded, treated with compound for 6 hours and stimulated with either IL-1β or TNFα for 60 minutes. Jurkat T-cells and primary mouse CD4^+ T-cells were seeded at 2×10^5 cells per sample, also treated with compound for 6 hours and stimulated with PMA/lonomycin for 3 hours. RNA was isolated according to the manufacturer's protocol of the Qiagen RNeasy Kit (MEF cells) or the STRATEC INVITRAP® SPIN UNIVERSAL RNA MINI KIT (Jurkat T-cells). The isolation of mRNA from […] white adipose tissue from DIO mice was performed using TRIzol® Reagent according to manufacturer's instruction. To clear the isolated RNA from genomic DNA, samples (up to 5 μg RNA) were treated with RQ1 RNase-Free DNaseI (Promega) as described in the technical manual. For the reverse transcription of RNA into cDNA, the DNaseI digested RNA samples were processed using the SuperScript III First Strand cDNA Synthesis System (Invitrogen/ThermoFisher Scientific) following the manufacturer's protocol. […] For quantification of cDNA in the samples, the LightCylcer480 (Roche) and the KAPA SYBR FAST qPCR Kit were used. For relative quantification, the ΔΔCp method first described by Pfaffl (Pfaffl, M. W., A new mathematical model for relative quantification in real-time RT-PCR. Nucleic Acids Res, 2001. 29(9): p. e45) was applied.
# [9] = test system: 87 primary molecular targets (kinases, non-kinase enzymes, nuclear receptors, GPCRs, transporters and ion channels); assay: SafetyScreen87 (Eurofins Cerep Panlabs); assay type: binding; settings: 10 μM
# Experimental: The SafetyScreen87, a total of 87 assays, was carried out at Eurofins Cerep Panlabs. 87 primary molecular targets including 13 enzyme assays (kinases and non-kinase enzymes) and 74 binding assays (nuclear receptors, GPCRs, transporters and ion channels) were performed at a compound concentration of 10 μM C25-140. Each of the 87 assay reactions was performed at the optimised condition that was historically available at Eurofins Cerep Panlabs. In parallel to C25-140, a reference compound for each of the 87 reactions was concurrently tested to guarantee optimal setting of the assays. In this study the reference compounds performed in the same range as historic Ki values.
# T1 sequence (Q969Q1 whole entry): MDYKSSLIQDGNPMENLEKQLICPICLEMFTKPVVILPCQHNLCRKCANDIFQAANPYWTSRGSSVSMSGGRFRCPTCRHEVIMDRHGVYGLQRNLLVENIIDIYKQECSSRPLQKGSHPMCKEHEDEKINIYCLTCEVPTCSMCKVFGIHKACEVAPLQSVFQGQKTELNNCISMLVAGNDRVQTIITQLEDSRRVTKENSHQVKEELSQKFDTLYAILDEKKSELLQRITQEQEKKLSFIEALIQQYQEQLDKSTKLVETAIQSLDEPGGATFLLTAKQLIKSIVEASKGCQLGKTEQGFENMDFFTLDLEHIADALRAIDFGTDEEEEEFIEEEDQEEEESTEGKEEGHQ
# T2 sequence (Q12809 whole entry): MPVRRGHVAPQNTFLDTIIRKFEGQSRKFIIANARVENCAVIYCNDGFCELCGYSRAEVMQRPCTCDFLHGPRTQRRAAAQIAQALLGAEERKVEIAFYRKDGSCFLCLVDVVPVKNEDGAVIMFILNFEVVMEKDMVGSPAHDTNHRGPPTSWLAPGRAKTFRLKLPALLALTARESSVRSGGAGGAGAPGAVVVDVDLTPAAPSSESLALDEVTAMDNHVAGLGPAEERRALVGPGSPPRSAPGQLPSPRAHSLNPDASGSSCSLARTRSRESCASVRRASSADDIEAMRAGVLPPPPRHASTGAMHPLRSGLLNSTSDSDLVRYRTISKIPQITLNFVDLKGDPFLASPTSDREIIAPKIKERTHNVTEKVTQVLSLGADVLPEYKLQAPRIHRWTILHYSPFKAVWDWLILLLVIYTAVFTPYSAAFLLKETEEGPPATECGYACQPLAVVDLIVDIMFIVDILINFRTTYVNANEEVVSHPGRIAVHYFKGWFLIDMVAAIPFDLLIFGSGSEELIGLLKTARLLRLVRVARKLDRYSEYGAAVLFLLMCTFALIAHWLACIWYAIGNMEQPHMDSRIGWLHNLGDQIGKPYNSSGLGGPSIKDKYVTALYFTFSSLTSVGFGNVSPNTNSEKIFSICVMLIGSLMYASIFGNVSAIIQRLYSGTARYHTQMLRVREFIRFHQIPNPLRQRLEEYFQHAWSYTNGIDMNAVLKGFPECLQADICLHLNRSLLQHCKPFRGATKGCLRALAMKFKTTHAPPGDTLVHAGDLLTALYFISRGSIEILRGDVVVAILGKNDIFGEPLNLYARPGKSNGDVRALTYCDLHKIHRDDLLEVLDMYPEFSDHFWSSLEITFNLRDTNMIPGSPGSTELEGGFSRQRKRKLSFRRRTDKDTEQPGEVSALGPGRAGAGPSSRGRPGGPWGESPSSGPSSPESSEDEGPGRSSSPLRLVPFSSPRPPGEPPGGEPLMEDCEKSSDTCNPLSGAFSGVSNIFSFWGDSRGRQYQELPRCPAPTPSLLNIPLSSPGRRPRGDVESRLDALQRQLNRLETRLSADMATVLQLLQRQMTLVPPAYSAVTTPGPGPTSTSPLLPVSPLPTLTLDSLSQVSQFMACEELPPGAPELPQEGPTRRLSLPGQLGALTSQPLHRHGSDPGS
smiles,measurement,setting,value
"Cc1nn(-c2ccc3nnc(C)n3n2)c(C)c1CCC(=O)N1CCC(Cc2ccccc2)CC1 [Example C25-140, 1-(4-Benzylpiperidin-1-yl)-3-(3,5-dimethyl-1-(3-methyl-[1,2,4]-triazolo-[4,3-b]-pyridazin-6-yl)-1H-pyrazol-4-yl)-propan-1-one]",plasma stability,[1],stable
same,S5A ubiquitination by MURF/TRIM63,[2],not influenced; also recorded: not affected
same,CYP450 inhibition,[3],some inhibitory potential on selected CYPs
same,cell cycle progression,[4],no effects on cell cycle phases; also recorded: not impaired
same,hERG inhibition,[5],does not very much inhibit hERG
same,NF-κB activation,[6],reduced; also recorded: attenuated NF-κB activation
same,metabolic activity and cell viability,[7],did not considerably impact cell viability; also recorded: does not considerably affect metabolic activity and cell viability up to 50 μM; also recorded: at the highest dose of 100 μM toxicity is noticeable
same,mRNA expression of target genes (ICAM-1 and A20),[8]; IL-1β stimulation,diminished target gene expression; also recorded: impaired
same,mRNA expression of target genes (ICAM-1 and A20),[8]; TNFα stimulation,also affects
same,effect on / binding to the 87 SafetyScreen87 targets,[9],no significant binding; also recorded: did not markedly affect any of the 87 molecular targets
